Assays:
[1] = test system: ICAM-1; assay: ICAM-1 expression in bEnd.3 cells (flow cytometry of cell-surface protein, Northern blot of mRNA); type: cell-based, mouse; details: cell culture, without any cationic lipid adjuvant
Source text: Cholesterol-oligonucleotide assays for ICAM-1 are done in the bEnd.3 cell line, a brain endothelioma using Opti-MEM, trypsin-EDTA and DMEM with high glucose (all from Gibco-BRL, Grand Island, N.Y.), Dulbecco's PBS (Irvine Scientific, Irvine, Calif.), sterile, 12 well tissue culture plates and Facsflow solution (from Becton Dickinson, Mansfield, Mass.), ultrapure formaldehyde (Polysciences, Warrington, Pa.), recombinant human TNF-α (R&D Systems, Minneapolis, Minn., mouse interferon-γ (Genzyme, Cambridge, Mass.), and Fraction V, BSA (Sigma, St. Louis, Mo.). The mouse ICAM-1-PE, VCAM-1-FITC, hamster IgG-FITC and rat IgG2α-PE antibodies were purchased from Pharmingen (San Diego, Calif.). Zeta-Probe nylon blotting membrane was purchased from Bio-Rad (Richmond, Calif.). QuickHyb solution was purchased from Stratagene (La Jolla, Calif.). A cDNA labeling kit, Prime-a-Gene, was purchased from ProMega (Madison, Wis.). NAP-5 columns were purchased from Pharmacia (Uppsala, Sweden). […]
After oligonucleotide treatment, cells are detached from the plates with a short treatment of trypsin-EDTA (1-2 min.). […] Cells are analyzed on a Becton Dickinson FACScan. Results are expressed as percentage of control expression, which is calculated as follows: [((CAM expression for oligonucleotide-treated cytokine induced cells)−(basal CAM expression))/((cytokine-induced CAM expression)−(basal CAM expression))]×100. […]

[2] = test system: VCAM-1; assay: VCAM-1 expression in cell culture (target specificity control); type: cell-based, mouse; details: isotype protein VCAM-1
Source text: Cholesterol-oligonucleotide assays for ICAM-1 are done in the bEnd.3 cell line, a brain endothelioma using Opti-MEM, trypsin-EDTA and DMEM with high glucose (all from Gibco-BRL, Grand Island, N.Y.), Dulbecco's PBS (Irvine Scientific, Irvine, Calif.), sterile, 12 well tissue culture plates and Facsflow solution (from Becton Dickinson, Mansfield, Mass.), ultrapure formaldehyde (Polysciences, Warrington, Pa.), recombinant human TNF-α (R&D Systems, Minneapolis, Minn., mouse interferon-γ (Genzyme, Cambridge, Mass.), and Fraction V, BSA (Sigma, St. Louis, Mo.). The mouse ICAM-1-PE, VCAM-1-FITC, hamster IgG-FITC and rat IgG2α-PE antibodies were purchased from Pharmingen (San Diego, Calif.). Zeta-Probe nylon blotting membrane was purchased from Bio-Rad (Richmond, Calif.). QuickHyb solution was purchased from Stratagene (La Jolla, Calif.). A cDNA labeling kit, Prime-a-Gene, was purchased from ProMega (Madison, Wis.). NAP-5 columns were purchased from Pharmacia (Uppsala, Sweden). Cells are grown to approximately 75% confluency in 12 well plates with DMEM containing 4.5 g/L glucose and 10% FBS. […] Cells are analyzed on a Becton Dickinson FACScan. Results are expressed as percentage of control expression, which is calculated as follows: [((CAM expression for oligonucleotide-treated cytokine induced cells)−(basal CAM expression))/((cytokine-induced CAM expression)−(basal CAM expression))]×100. […]

[3] = mouse, in vivo
Experimental: The effect of cholesterol conjugation on the pharmacokinetic properties of the oligonucleotide is determined in mice using ^3H radiolabeled Oligonucleotide VI.

[4] = test system: ICAM-1; assay: Inhibition of LPS-induced ICAM-1 expression in mouse liver; type: in vivo, C57Bl/10 mice; details: 10 mg/kg i.v. twice, 24 h and 2 h before LPS; liver RNA 4 h after LPS

Oligomer VI: TGC* ATC CCC CAG GCC ACC AT (P = S), C* = cholesterol carbamate nucleoside Compound 9; cholesterol conjugate of ISIS 3082
effect on ICAM-1 expression [1]: inhibits ICAM-1 in a dose dependent manner
inhibition of VCAM-1 expression [2]: neither molecule show significant inhibition
amount of oligonucleotide in kidney, skeletal muscle and skin [3]: reduced in kidney, skeletal muscle and skin
amount of oligonucleotide in liver [3]: more oligonucleotide is found in the liver
retention in plasma [3]: retained in the plasma for longer periods of time than is ISIS-3082
reduction of ICAM expression in liver [4]: 40-50%

Reference: patent US6803198B2, “Carbamate-derivatized nucleosides and oligonucleosides” (ISIS Pharmaceuticals, Inc., priority 1996, dated 2004)
